Assay results as given in US8569055B2, “Identification and characterization of cancer stem cells and methods of use” (City of Hope, priority 2006, dated 2013).

B1: Bikunin: a physiological inhibitor of uPA (protein, UniProt P02760 206-352, looked up)
Inter-alpha-trypsin inhibitor …: AVLPQEEEGSGGGQLVTEVTKKEDSCQLGYSAGPCMGMTSRYFYNGTSMACETFQYGGCMGNGNNFVTEKECLQTCRTVAACNLPIVRGPCRAFIQLWAFDAVKGKCVLFPYGGCQGNGNKFYSEKECREYCGVPGDGDEELLRFSN
modifications: Inter-alpha-trypsin inhibitor light chain

What was measured:
Assay type in all cases: cell-based, human
[1] = test system: uPAR-positive sorted NCI-H1417 cells; assay: Cytotoxicity assay (Guava ViaCount), 5-FU, sorted uPAR-positive NCI-H1417; settings: uPAR-positive sorted NCI-H1417, 72 hours
Description: (§1) FIG. 2: Cytotoxic effect of 5-FU on non-sorted and sorted (uPAR-positive and uPAR-negative populations) derived from SCLC cell lines. (A) […] cells (H211, H69AR, H1417) were placed in wells of a 48-well plate in triplicates and incubated for 72 hr in the presence of varying concentrations of 5-FU. (B) SCLC cell lines were FACS sorted after staining with anti-uPAR antibodies and were plated at the same seeding density ([…]/well of 96-well plate) and treated with 5-FU at […] for 72 hr. Cell survival was evaluated after adding Guava ViaCount reagent and counting viable and dead cells. Only viable cells were included in data analysis, and 100% viability was defined as number of viable cells cultured in absence of 5-FU. […] The data points represent averages±SD of three independent experiments. […]
(§2) Cells were counted, placed into 96-well plates (4×10^3 cells/well, in triplicate), and treated with 5-fluorouracil (5-FU) at a final concentration of 0, 3, 10, 100, or 200 μg/ml. After incubation for 72 hours, both viable and dead cells were counted using the Guava ViaCount assay. […] Fluorescence of the dyes allows quantitative assessment of both viable and non-viable cells in suspension. […]

[2] = test system: non-sorted NCI-H211, NCI-H69AR, NCI-H1417 cells; assay: Cytotoxicity assay (Guava ViaCount), 5-FU, non-sorted SCLC cell lines; settings: 5-FU up to 200 μg/ml, 72 hours
Description: as §1, §2

[3] = test system: uPAR-positive sorted NCI-H211 cells; assay: Cytotoxicity assay (Guava ViaCount), 5-FU, sorted uPAR-positive NCI-H211; settings: uPAR-positive sorted NCI-H211, 72 hours
Description: as §1, §2

[4] = test system: uPAR-positive NCI-H69AR cells; assay: Cytotoxicity assay (Guava ViaCount), 5-FU, sorted uPAR-positive NCI-H69AR; settings: 72 hours
Description: as §1, §2

[5] = test system: uPAR-negative NCI-H69AR cells; assay: Cytotoxicity assay (Guava ViaCount), 5-FU, sorted uPAR-negative NCI-H69AR; settings: 72 hours
Description: as §1, §2

[6] = test system: NSC F3 stem cell; assay: Inhibition of stem cell migration by uPAR inhibitors, in vitro migration assay; settings: inhibitor applied to lower chamber of migration assay system
From the text: FIG. 10: Inhibition of NSC F3 stem cell migration by anti-uPAR antibodies and bikunin.
The role of the uPA/uPAR system in stem cell migration was investigated using the immortalized neural stem cell line (NSC) HB1.F3.C1 and bone marrow-derived mesenchymal stem cells (MSC) (passages 5-6) for in vitro cell migration assays. Five cancer cell lines expressing high levels of uPAR (SK-N-AS, U251, PC-3, MDA-MB-231, and CRL-5904) and five cancer cell lines expressing low levels of uPAR (COLO-320, NB-1691, CRL-5824, CRL-5869, and MCF-7) as determined in Example 6 were utilized for this experiment.
The effect of uPAR inhibitors on stem cell migration was examined in order to verify that increased stem cell migration to tumor cells expressing high levels of uPAR was dependent on uPAR. Bikunin, a physiological inhibitor of uPA, and various anti-uPAR antibodies were applied to the lower chamber of the migration assay system.

Row | Molecule | cells killed [1] | cells killed [2] | cells killed [3] | cells killed ([4]; 10 μg/ml 5-FU) | killing effect ([4]; 200 μg/ml 5-FU) | cells killed ([5]; 10 μg/ml 5-FU) | killing effect ([5]; 200 μg/ml 5-FU) | inhibition of stem cell migration [6]
1 | O=c1[nH]cc(F)c(=O)[nH]1 [5-FU, 5-fluorouracil] | 40-50% | 40-80% | 40-50% | 30% | approximately 100% | 85% | approximately 100% | 
2 | B1 |  |  |  |  |  |  |  | effectively inhibited stem cell migration
